According to paper PMC4359187 (Drugs in R&D, 2015):

Experiments:
[1] = system: treatment-naïve HIV-1-infected patients; assay: Continuous Holter 12-lead ECG; format: in vivo, human; details: modified saquinavir/ritonavir regimen
HIV-positive patients = details: saquinavir monotherapy, 84 patients; cited from earlier work
[2] = system: hERG channels heterologously expressed in HEK293 cells; details: cited from earlier work

For `CC(C)(C)NC(=O)[C@@H]1C[C@@H]2CCCC[C@@H]2CN1C[C@@H](O)[C@H](Cc1ccccc1)NC(=O)[C@H](CC(N)=O)NC(=O)c1ccc2ccccc2n1` [Saquinavir, saquinavir], which “Correlation between maximum ∆QTcFdense and C max of saquinavir” value [1] is on record?
Its value is “No strong correlation”.

What about the “Clinical EC50 value, C min” value (HIV-positive patients) of the same compound?
The value was 0.05 µg/mL.

What about the “Blockage of hERG channels” value ([2]; hERG heterologously expressed in HEK293 cells) of the same compound?
The value was “dose-dependent blockage”.

What about the “Effect on hERG trafficking” value ([2]; in vitro) of the same compound?
Its value is “inhibitory effects”.
